{"source": "patent US20240043860A1", "about": "“NOVEL HYDROXYPHENYLPYRUVATE DIOXYGENASE POLYPEPTIDES AND METHODS OF USE THEREOF” (Syngenta Crop Protection AG, priority 2020, published 2024)", "key": {"[1]": {"tested_on": "wild-type tobacco plants", "assay": "spray test, herbicidal damage scoring", "format": "in vivo", "details": "Table 4.1, 7 days after treatment, 100=complete death, 0=no damage, one value per plant/event", "method": "(§1) Once rooted, plantlets are transferred from agar and potted into 50% peat, 50% John Innes Soil No. 3 or, for example, MetroMix® 380 soil (Sun Gro Horticulture, Bellevue, WA) with slow-release fertilizer in 3 inch round or 4 inch square pots and left regularly watered to establish for 8-12d in the glass house. Glass house conditions are about 24-27° C. day; 18-21° C. night and approximately a 14h (or longer in UK summer) photoperiod.\n(§2) About 20-30 TO events are produced for a number of HPPD variant genes.\n(§3) Tables 4.1-4.9 show the herbicidal damage scoring on transgenic tobacco plants 7 days after treatment. A score of 100=complete death and 0=no damage observed."}, "[2]": {"tested_on": "transgenic tobacco plants expressing mutant HPPD SEQ ID NO: 14", "assay": "spray test, herbicidal damage scoring", "format": "in vivo", "details": "for tolerance compared to SEQ ID 122 expressing plants: SEQ ID 14 plants, 800 g/ha Mesotrione, 400 g/ha Tembotrione or 400 g/ha Isoxaflutole (Table 3.2)", "method": "(§4) Avena sativa HPPD or orthologues and variants thereof, for example SEQ IDs 1-63 and 122-127, were expressed in transgenic tobacco. DNA sequences that encode these polypeptides (optimized for tobacco or, optionally, codon optimized according to a target crop such as soybean) were prepared synthetically. Each sequence was designed to include a 5′ fusion with TMV omega 5′ leader sequence such that they are flanked at the 5′ end with XhoI and at the 3′ end with KpnI to facilitate direct cloning into a suitable binary vector for Agrobacterium-based plant transformation.\nIn one example, the TMV omega 5′ leader and a HPPD encoding gene of interest is excised using XhoI/KpnI and cloned into similarly digested binary vector pBIN 19 (Bevan, Nucl. Acids Res. (1984) behind a double enhanced 35S promoter ahead of a NOS 3′ transcription terminator and then transformed into E. coli DH5 alpha competent cells. DNA recovered from the E. coli is used to transform Agrobacterium tumefaciens LBA4404, and transformed bacteria are selected on media contain rifampicin and kanamycin. Tobacco tissue is subjected to Agrobacterium-mediated transformation using methods well described in the art or as described herein. For example, a master plate of Agrobacterium tumefaciens containing the HPPD expressing the binary vector is used to inoculate 10 ml LB (L broth) containing 100 mg/l Rifampicin plus 50 mg/l Kanamycin using a single bacterial colony. This is incubated overnight at 28° C. shaking at 200 rpm. This entire overnight culture is used to inoculate a 50 ml volume of LB containing the same antibiotics. Again this is cultured overnight at 28° C. shaking at 200 rpm. The Agrobacterium cells are pelleted by centrifuging at 3000 rpm for 15 minutes and then resuspended in MS (Murashige and Skoog) medium containing 30 g/l sucrose, pH 5.9 to an OD […]=0.6. This suspension is dispensed in 25 ml aliquots into petri dishes.\nOnce rooted, plantlets are transferred from agar and potted into 50% peat, 50% John Innes Soil No. 3 or, for example, MetroMix® 380 soil (Sun Gro Horticulture, Bellevue, WA) with slow-release fertilizer in 3 inch round or 4 inch square pots and left regularly watered to establish for 8-12d in the glass house. Glass house conditions are about 24-27° C. day; 18-21° C. night and approximately a 14h (or longer in UK summer) photoperiod. Humidity is adjusted to ˜65% and light levels used are up to 2000 umol/m^2 at bench level. Once new tissue emerged and plants reach the 2-4 leaf stage, some of the clones from each event are sprayed with an HPPD inhibitor of interest selected from the herbicides listed in reference to Example 1. […] For example Callisto® is mixed in water with 0.2-0.25% X-77 surfactant and sprayed from a boom on a suitable track sprayer moving at 2 mph in a DeVries spray chamber (Hollandale, MN) with the nozzle about 2 inches from the plant tops.\nPlants are assessed for damage and scored at, for example, 7 and 14 days after treatment (DAT). About 20-30 TO events are produced for a number of HPPD variant genes.\nPlants of events showing the least damage are grown to flowering, then bagged and allowed to self. […] Single copy events amongst the Ti plant lines are identified by their 3:1 segregation ratio (with respect to kanamycin and/or herbicide) and by quantitative RT-PCR. Seed from the thus selected Ti tobacco (var. Samsun) lines are sown in 3 inch diameter pots containing 50% peat and 50% John Innes Soil No. 3. After growth to the 3 leaf stage, plants are sprayed as described above in order to test for herbicide tolerance relative to like-treated non-transgenic tobacco plants, and also in comparison with like-treated Ti plants expressing the base HPPD SEQ IDs 122-125. HPPD expression levels were monitored by Western analysis. […]"}, "[3]": {"tested_on": "transgenic tobacco plants expressing mutant HPPD SEQ ID NO: 122", "assay": "spray test, herbicidal damage scoring", "format": "in vivo", "details": "Table 3.2; 14 days after treatment; best events, SEQ ID 122; 100=complete death, 0=no damage; one value per event"}, "[4]": {"tested_on": "transgenic tobacco plants expressing mutant HPPD SEQ ID NO: 125", "assay": "spray test, herbicidal damage scoring", "format": "in vivo", "details": "Table 4.3, 7 days after treatment, 100=complete death, 0=no damage, one value per event", "method": "as §4, with “DNA” for “Avena sativa HPPD or orthologues and variants thereof, for example SEQ IDs 1-63 and 122-127, were expressed in transgenic tobacco. DNA”\n(§5) For example, a master plate of Agrobacterium tumefaciens containing the HPPD expressing the binary vector is used to inoculate 10 ml LB (L broth) containing 100 mg/l Rifampicin plus 50 mg/l Kanamycin using a single bacterial colony. This is incubated overnight at 28° C. shaking at 200 rpm. This entire overnight culture is used to inoculate a 50 ml volume of LB containing the same antibiotics. Again this is cultured overnight at 28° C. shaking at 200 rpm. The Agrobacterium cells are pelleted by centrifuging at 3000 rpm for 15 minutes and then resuspended in MS (Murashige and Skoog) medium containing 30 g/l sucrose, pH 5.9 to an OD […]=0.6. This suspension is dispensed in 25 ml aliquots into petri dishes.\nas §1, §2\n(§6) Single copy events amongst the Ti plant lines are identified by their 3:1 segregation ratio (with respect to kanamycin and/or herbicide) and by quantitative RT-PCR. Seed from the thus selected Ti tobacco (var. Samsun) lines are sown in 3 inch diameter pots containing 50% peat and 50% John Innes Soil No. 3. […] HPPD expression levels were monitored by Western analysis.\nas §3"}, "[5]": {"tested_on": "transgenic tobacco plants expressing mutant HPPD SEQ ID NO: 124", "assay": "spray test, herbicidal damage scoring", "format": "in vivo", "details": "Table 4.2, 7 days after treatment, 100=complete death, 0=no damage, one value per event", "method": "as §4, with “DNA” for “Avena sativa HPPD or orthologues and variants thereof, for example SEQ IDs 1-63 and 122-127, were expressed in transgenic tobacco. DNA”\nas §5, §1, §2, §6, §3"}, "[6]": {"tested_on": "transgenic tobacco plants expressing mutant HPPD SEQ ID NO: 122", "assay": "spray test, herbicidal damage scoring", "format": "in vivo", "details": "Table 4.4; 7 days after treatment; SEQ ID NO: 122; 100=complete death, 0=no damage; one value per event", "method": "as §4, with “DNA” for “Avena sativa HPPD or orthologues and variants thereof, for example SEQ IDs 1-63 and 122-127, were expressed in transgenic tobacco. DNA”\nas §5, §1, §2, §6, §3"}, "[7]": {"tested_on": "HPPD variant APESV V200 (SEQ ID NO: 6)", "assay": "coupled HGO assay", "format": "biochemical, Apera spica-venti", "method": "(§7) DNA sequences (SEQ ID NOs: 65-118, 128, 130, 131, and 133), synthesized for expression in E. coli, by GeneWiz (USA) to encode HPPD variants (SEQ ID NOs: 5-58, 122, 124, 125 and 127) derived from either Avena sativa (SEQ ID NOs: 122, 124), Alopecurus myosuroides (SEQ ID NO: 126) or Apera spica-venti (SEQ ID NOs: 123, 125) were transformed into E coli BL21 (DE3) (New England Biolabs) and grown in 0.5 ml Terrific broth +50 ug/ml Kanamycin media in a 96-deepwell block overnight (37° C., 900rpm). 25 ul of the overnight cultures were inoculated into fresh 96-deepwell block containing 1 ml Formedium Autoinduction Media (AIM). The AIM cultures were grown for 3h at 37° C. (900rpm) and then transferred to 20° C. overnight (900rpm) to allow protein expression. The overnight cultures were centrifuged and 500 ul of Cellytic B (Sigma Aldrich) was added to resuspend the cell pellets. The coupled HGO assay (Siehl et al, 2014) is used to generate IC50 values for the HPPD variants of interest.\n(§8) E. coli BL21 (DE3) cells were transformed with a pET24a vector containing a C-terminally his-tagged Arabidopsis HGO gene, grown and induced overnight as described for the HPPD variants above. The cell pellet was resuspended in phosphate buffered saline at pH 7.4 containing 10% Glycerol, 1mm Tris[2-carboxyethyl] phosphine-HCl (TCEP) plus 30 mM Imidazole and lysed using lysozyme/benzonase. The extract was clarified by low speed centrifugation and purified in the same buffer down a 1 ml His Gravitrap column. The bound HGO was eluted in 0.25M imidazole and the fractions pooled and beaded into liquid nitrogen. All procedures apart from the centrifugation and beading steps were carried out under a nitrogen atmosphere.\n(§9) The coupled HGO assay is carried out by adding 10 ul of HPPD extract to a 96-well plate and then adding 40 ul of reaction buffer (50 mM Bis Tris Propane, pH7.0, 25 mM sodium-L-ascorbate, 400μM mercaptoethanol, 50 μM Fe(II)SO4). The plates are left to incubate for 5 minutes on ice. […] 200 ul of HPP/HGO (197 μM hydroxyphenylpyruvic acid, 16 μl/ml Homogentisic Acid Oxidase in reaction buffer as described above) buffer is then added to the well and the reaction is regularly monitored (e.g. every 30 seconds-5 minutes) for absorbance at 330 nm for a given time period (e.g., for between 15-60 minutes). The data can then be used to calculate the IC50 value for each HPPD variant of interest."}, "[8]": {"tested_on": "HPPD variant APESV V209 (SEQ ID NO: 18)", "assay": "coupled HGO assay", "format": "biochemical, Apera spica-venti", "method": "as §7, §8, §9"}, "[9]": {"tested_on": "HPPD variant ALOME V209 (SEQ ID NO: 19)", "assay": "coupled HGO assay", "format": "biochemical, Alopecurus myosuroides", "method": "as §7, §8, §9"}, "[10]": {"tested_on": "HPPD variant ALOME V200 (SEQ ID NO: 7)", "assay": "coupled HGO assay", "format": "biochemical, Alopecurus myosuroides", "method": "as §7, §8, §9"}, "[11]": {"tested_on": "HPPD variant ALOME V162 (SEQ ID NO: 126)", "assay": "coupled HGO assay", "format": "biochemical, Alopecurus myosuroides", "method": "as §7, §8, §9"}}, "note": "Where “and” joins values, the source holds several entries; their conditions need not be identical. Equal values may be shown once."}
{"smiles": "CS(=O)(=O)c1cc(C(F)(F)F)ccc1C(=O)c1cnoc1C1CC1", "note": "[Isoxaflutole, isoxaflutole]", "values": [{"measurement": "herbicidal damage scoring, Isoxaflutole (400 gai/ha)", "setting": "[1]", "result": "95 and 97 and 96"}, {"measurement": "tolerance compared to SEQ ID 122 expressing plants", "setting": "[2]", "result": "equally tolerant"}]}
{"smiles": "CS(=O)(=O)c1ccc(C(=O)C2C(=O)CCCC2=O)c(Cl)c1COCC(F)(F)F", "note": "[Tembotrione, tembotrione]", "values": [{"measurement": "herbicidal damage scoring, Tembotrione (400 gai/ha)", "setting": "[1]", "result": "97 and 95 and 98"}, {"measurement": "tolerance compared to SEQ ID 122 expressing plants", "setting": "[2]", "result": "increased tolerance"}, {"measurement": "herbicidal damage scoring, Tembotrione (400 gai/ha)", "setting": "[2]; Table 3.2, 14 days after treatment, best events, SEQ ID 14, 100=complete death, 0=no damage, one value per event", "result": "25 and 30"}, {"measurement": "herbicidal damage scoring, Tembotrione (400 gai/ha)", "setting": "[3]", "result": "45 and 50 and 55 and 65 and 40"}]}
{"smiles": "Cc1c(C(=O)c2cnn(C)c2O)ccc(S(C)(=O)=O)c1C1=NOCC1", "note": "[Topramezone, topramezone]", "values": [{"measurement": "herbicidal damage scoring, Topramezone (100 g/ha)", "setting": "[1]", "result": "98 and 97 and 99 and 95"}, {"measurement": "herbicidal damage scoring, Topramezone (100 g/ha)", "setting": "[4]", "result": 0}, {"measurement": "herbicidal damage scoring, Topramezone (100 g/ha)", "setting": "[5]", "result": 0}, {"measurement": "herbicidal damage scoring, Topramezone (100 g/ha)", "setting": "[6]", "result": 0}]}
{"smiles": "CS(=O)(=O)c1ccc(C(=O)C2C(=O)CCCC2=O)c([N+](=O)[O-])c1", "note": "[Mesotrione, mesotrione]", "values": [{"measurement": "IC50", "setting": "[7]", "result": 32.2, "unit": "µM"}, {"measurement": "IC50", "setting": "[8]", "result": 44.8, "unit": "µM"}, {"measurement": "tolerance compared to SEQ ID 122 expressing plants", "setting": "[2]", "result": "equally tolerant"}, {"measurement": "IC50", "setting": "[9]", "result": 31.9, "unit": "µM"}, {"measurement": "IC50", "setting": "[10]", "result": 31.9, "unit": "µM"}, {"measurement": "IC50", "setting": "[11]", "result": 12.8, "unit": "µM"}]}
